Test results: ChEMBL document CHEMBL1201862, “PubChem BioAssay data set” (2004)
The source made the active and inactive calls. For most assays here, no stated cut-off is given here; in the data, actives have a measured IC50 and inactives only a lower limit.

Legend:
[1] = target: T1, Tyrosine-protein phosphatase non-receptor type 22 (Homo sapiens, UniProt Q9Y2R2); test: LYP (PTPN22) phosphatase inhibitor potency, SAR follow-up, biochemical, pCAP fluorogenic substrate, fluorescence, set 3 (AID 449727); type: functional
T1 sequence (Q9Y2R2 whole entry): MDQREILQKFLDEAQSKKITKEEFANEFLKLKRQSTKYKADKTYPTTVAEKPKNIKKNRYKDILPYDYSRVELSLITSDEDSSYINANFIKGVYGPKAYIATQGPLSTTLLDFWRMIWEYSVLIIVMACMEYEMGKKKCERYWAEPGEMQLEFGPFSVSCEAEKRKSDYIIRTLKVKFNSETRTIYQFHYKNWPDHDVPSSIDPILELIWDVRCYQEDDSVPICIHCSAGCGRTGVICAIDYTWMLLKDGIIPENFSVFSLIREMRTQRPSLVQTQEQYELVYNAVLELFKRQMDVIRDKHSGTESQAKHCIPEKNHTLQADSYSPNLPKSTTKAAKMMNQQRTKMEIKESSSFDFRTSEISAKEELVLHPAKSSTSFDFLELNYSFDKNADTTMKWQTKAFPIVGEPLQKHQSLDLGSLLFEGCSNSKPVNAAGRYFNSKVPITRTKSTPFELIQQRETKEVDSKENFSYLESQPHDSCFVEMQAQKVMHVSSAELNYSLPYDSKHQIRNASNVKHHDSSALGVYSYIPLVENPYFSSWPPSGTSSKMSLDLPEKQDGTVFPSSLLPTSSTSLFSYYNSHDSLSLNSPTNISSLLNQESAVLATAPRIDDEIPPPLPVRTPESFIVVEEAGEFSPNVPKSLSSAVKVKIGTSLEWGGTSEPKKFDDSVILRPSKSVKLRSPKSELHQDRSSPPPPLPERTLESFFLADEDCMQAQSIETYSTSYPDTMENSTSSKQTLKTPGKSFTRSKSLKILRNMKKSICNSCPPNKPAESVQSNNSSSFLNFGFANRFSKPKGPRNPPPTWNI

[2] = target: Tyrosine-protein phosphatase non-receptor type 12 (Homo sapiens, UniProt Q05209); test: SAR Selectivity Analysis of small molecule inhibitors of PEST using pCAP in a fluorescence assay. [Related pubchem assays (depositor defined):AID1779, AID1784, AID2135]; type: functional
[3] = target: Eukaryotic translation initiation factor 4E (Mus musculus, UniProt P63073); test: eIF4E–eIF4G protein interaction inhibitors, dose response, biochemical, TR-FRET (AID 855); type: functional;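 further: potency for disrupting eIF4E binding to eIF4GI seen as loss of FRET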
[4] = target: T1, Tyrosine-protein phosphatase non-receptor type 22; test: SAR LYP1 Fluorescent Assay using OMFP substrate for In Vitro dose response studies - Set 3. [Related pubchem assays (depositor defined):AID1779, AID1784, AID2140, AID2686]; type: functional
[5] = target: T2, Tyrosine-protein phosphatase non-receptor type 7 (Homo sapiens, UniProt P35236); test: HePTP (PTPN7) phosphatase inhibitor potency, SAR follow-up, biochemical, set 2 (AID 449736); type: functional
T2 sequence (P35236 whole entry): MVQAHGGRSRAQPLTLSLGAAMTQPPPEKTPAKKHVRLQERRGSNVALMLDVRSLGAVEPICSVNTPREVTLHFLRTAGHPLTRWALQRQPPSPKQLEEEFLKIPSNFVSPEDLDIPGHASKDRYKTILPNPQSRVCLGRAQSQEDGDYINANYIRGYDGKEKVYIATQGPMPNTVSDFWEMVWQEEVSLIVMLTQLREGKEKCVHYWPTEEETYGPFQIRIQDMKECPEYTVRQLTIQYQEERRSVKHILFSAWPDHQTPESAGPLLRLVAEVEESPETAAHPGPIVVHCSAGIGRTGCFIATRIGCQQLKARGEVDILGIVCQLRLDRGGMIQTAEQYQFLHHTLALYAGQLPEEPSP

Hexokinase HKDC1 = target: T3, Hexokinase HKDC1 (Homo sapiens, UniProt Q2TB90); test: HKDC1 hexokinase activators, dose response, biochemical, W721R variant (AID 504730); type: functional
T3 sequence (Q2TB90 whole entry): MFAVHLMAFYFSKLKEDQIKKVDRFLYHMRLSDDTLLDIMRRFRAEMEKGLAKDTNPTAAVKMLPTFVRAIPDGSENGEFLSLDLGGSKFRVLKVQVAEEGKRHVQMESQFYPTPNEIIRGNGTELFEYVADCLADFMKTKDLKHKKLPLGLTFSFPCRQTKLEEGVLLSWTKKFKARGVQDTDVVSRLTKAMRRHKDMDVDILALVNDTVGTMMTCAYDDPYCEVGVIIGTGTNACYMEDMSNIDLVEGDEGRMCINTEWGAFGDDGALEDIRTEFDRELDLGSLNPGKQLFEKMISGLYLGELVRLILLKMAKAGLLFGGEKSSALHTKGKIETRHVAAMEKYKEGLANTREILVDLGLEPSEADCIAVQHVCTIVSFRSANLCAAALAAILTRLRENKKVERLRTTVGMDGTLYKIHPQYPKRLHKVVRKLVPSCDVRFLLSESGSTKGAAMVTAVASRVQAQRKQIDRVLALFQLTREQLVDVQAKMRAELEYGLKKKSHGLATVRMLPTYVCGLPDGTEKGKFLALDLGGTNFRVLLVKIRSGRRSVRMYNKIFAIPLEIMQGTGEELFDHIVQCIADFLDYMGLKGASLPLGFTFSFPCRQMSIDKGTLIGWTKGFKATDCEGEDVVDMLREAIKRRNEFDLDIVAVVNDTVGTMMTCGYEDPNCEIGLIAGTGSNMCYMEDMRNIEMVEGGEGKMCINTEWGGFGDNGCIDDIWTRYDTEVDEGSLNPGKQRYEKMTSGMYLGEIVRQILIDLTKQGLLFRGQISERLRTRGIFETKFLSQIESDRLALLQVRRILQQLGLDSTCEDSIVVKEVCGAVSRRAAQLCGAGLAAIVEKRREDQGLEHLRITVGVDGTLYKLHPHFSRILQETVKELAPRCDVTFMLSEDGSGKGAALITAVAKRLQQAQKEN

[6] = target: DNA dC->dU-editing enzyme APOBEC-3A (Homo sapiens, UniProt P31941); test: Dose Response confirmation of small molecule APOBEC3A DNA Deaminase Inhibitors via a fluorescence-based single-stranded DNA deaminase assay. [Related pubchem assays (depositor defined):AID493011, AID493024]; type: functional
[7] = target: DNA dC->dU-editing enzyme APOBEC-3G (Homo sapiens, UniProt Q9HC16); type: functional;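 further: Dose-response counterscreen measuring inhibition of APOBEC3G DNA deaminase activity, run while confirming APOBEC3A inhibitors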
[8] = target: T4, Carboxy-terminal domain RNA polymerase II polypeptide A small phosphatase 1 (Homo sapiens, UniProt Q9GZU7); test: inhibitors of CTDSP1, concentration-response testing, biochemical assay, absorbance-based, actives from ultra-high-throughput screening (AID 540297); type: functional
T4 sequence (Q9GZU7 whole entry): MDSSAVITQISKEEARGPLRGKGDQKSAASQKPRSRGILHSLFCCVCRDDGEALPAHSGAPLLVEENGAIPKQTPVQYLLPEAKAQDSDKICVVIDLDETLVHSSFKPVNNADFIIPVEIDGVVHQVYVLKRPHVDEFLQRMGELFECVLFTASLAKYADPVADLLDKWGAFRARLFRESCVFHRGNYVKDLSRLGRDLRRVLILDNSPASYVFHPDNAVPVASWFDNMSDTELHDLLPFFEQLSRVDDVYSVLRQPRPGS

[9] = target: T5, Tyrosine-protein phosphatase non-receptor type 11 (Homo sapiens, UniProt Q06124); test: SHP2 phosphatase inhibition, dose response, selectivity assay for STEP inhibitor project, biochemical (AID 602367); type: functional; details: read-out: IC50_Mean
T5 sequence (Q06124 whole entry): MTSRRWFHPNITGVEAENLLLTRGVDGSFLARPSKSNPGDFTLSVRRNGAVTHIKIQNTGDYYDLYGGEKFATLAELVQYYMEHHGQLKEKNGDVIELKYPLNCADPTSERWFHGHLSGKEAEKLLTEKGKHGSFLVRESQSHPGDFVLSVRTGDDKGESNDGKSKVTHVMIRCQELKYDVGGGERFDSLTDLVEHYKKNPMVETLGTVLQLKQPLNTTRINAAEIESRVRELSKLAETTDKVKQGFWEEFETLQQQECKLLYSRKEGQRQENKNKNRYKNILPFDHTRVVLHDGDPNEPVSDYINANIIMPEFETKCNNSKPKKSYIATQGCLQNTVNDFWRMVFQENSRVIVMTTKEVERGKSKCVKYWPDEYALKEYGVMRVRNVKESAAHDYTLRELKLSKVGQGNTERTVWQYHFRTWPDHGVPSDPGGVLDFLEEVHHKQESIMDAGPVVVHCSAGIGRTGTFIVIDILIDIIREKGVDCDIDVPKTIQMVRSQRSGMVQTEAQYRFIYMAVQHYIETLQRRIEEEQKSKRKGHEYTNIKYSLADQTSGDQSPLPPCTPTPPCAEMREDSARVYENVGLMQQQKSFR

SUMO-activating enzyme [10] = target: T6, SUMO-activating enzyme (Homo sapiens, UniProt Q9UBT2); test: inhibitors of in vitro SUMOylation cascade, primary screen, biochemical, HTRF, uHTS (AID 2006); type: protein-complex assay
[11] = target: T7, Tyrosine-protein phosphatase non-receptor type 5 (Homo sapiens, UniProt P54829); test: STEP phosphatase inhibitors, confirmation, biochemical, fluorescence intensity, uHTS hits (AID 602372); type: functional; details: read-out: IC50_Mean
T7 sequence (P54829 whole entry): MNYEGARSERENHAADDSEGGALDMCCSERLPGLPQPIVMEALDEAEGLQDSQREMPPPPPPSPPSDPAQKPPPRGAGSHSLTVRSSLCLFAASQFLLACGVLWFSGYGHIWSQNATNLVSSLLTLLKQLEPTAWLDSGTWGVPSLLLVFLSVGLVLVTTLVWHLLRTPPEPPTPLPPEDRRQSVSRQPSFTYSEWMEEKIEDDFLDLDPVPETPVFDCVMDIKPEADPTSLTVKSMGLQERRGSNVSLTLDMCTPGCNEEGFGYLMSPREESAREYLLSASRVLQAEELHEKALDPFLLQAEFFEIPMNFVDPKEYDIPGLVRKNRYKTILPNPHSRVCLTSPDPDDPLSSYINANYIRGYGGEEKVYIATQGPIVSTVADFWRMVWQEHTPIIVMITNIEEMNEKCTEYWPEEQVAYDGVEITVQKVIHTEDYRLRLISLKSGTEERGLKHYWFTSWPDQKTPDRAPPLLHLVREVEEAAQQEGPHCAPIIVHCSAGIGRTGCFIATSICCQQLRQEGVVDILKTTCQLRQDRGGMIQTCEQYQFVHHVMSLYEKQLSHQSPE

[12] = target: T8, Low molecular weight phosphotyrosine protein phosphatase (Homo sapiens, UniProt P24666); type: functional; details: read-out: IC50_Mean;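 further: Dose-response confirmation assay measuring inhibition of LMPTP enzyme activity by fluorescence intensity read-out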
T8 sequence (P24666 whole entry): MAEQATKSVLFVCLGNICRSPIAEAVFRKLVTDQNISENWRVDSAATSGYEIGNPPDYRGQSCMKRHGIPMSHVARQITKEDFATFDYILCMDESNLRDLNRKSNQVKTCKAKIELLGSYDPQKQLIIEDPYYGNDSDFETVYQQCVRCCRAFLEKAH

SUMO-activating enzyme [13] = target: T6, SUMO-activating enzyme; test: SUMOylation inhibitor hit validation, confirmation, SUMOylation inhibitor project, biochemical, AlphaScreen (AID 2018); type: functional
[14] = target: Dual specificity protein phosphatase 3 (Homo sapiens, UniProt P51452); test: VHR phosphatase inhibition, dose response, selectivity assay for STEP inhibitor project, biochemical (AID 602374); type: functional; details: read-out: IC50_Mean
Troponin, cardiac muscle = Troponin, cardiac muscle (Homo sapiens, UniProt P19429+P45379+P63316); test: Fluorescence-based biochemical high throughput dose response assay for activators of the calcium sensitivity of cardiac Regulated Thin Filaments (RTF). [Related pubchem assays (depositor defined):AID493008, AID493018, AID504382, AID504383]; type: protein-complex assay
[15] = target: T9, Alkaline phosphatase, tissue-nonspecific isozyme (Homo sapiens, UniProt P05186); test: human TNAP enzyme inhibitors, SAR follow-up, biochemical, luminescent, dose response (AID 1056)
T9 sequence (P05186 whole entry): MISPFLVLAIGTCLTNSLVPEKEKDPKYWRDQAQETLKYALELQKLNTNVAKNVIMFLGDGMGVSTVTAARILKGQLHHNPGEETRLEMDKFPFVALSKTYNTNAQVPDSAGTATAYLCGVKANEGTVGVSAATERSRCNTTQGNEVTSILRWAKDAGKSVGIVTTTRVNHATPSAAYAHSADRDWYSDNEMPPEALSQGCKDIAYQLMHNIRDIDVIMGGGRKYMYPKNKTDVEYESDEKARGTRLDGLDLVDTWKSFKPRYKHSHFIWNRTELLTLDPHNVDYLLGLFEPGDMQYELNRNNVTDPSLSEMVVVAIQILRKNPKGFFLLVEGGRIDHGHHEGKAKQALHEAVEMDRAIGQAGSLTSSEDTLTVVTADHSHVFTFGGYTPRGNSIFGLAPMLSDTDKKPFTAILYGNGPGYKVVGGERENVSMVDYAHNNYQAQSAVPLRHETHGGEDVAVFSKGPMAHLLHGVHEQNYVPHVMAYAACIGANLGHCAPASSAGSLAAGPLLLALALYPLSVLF

[16] = target: Alkaline phosphatase, placental type (Homo sapiens, UniProt P05187); test: PLAP enzyme inhibitors, confirmation, biochemical, luminescence (AID 1512); type: functional
[17] = target: Glyceraldehyde-3-phosphate dehydrogenase (Homo sapiens, UniProt P04406)

## COc1ccc(CN2C(=O)/C(=C/c3ccc(-c4ccc(Cl)c(C(=O)O)c4)o3)SC2=S)cc1
[1]
  IC50: 8.93 µM (active)
[2]
  IC50: 3.13 µM (active)
[3]
  IC50: 16.4 µM (active)
[4]
  IC50: 44.5 µM (active)
[5]
  IC50: 0.331 µM (active)

## O=C(COC(=O)c1n[nH]c2ccccc12)c1cccc(Br)c1
Hexokinase HKDC1
  EC50: > 80 µM (inactive)

## CSc1ccc(S(=O)(=O)N2CCC(C(=O)NCc3ccccn3)CC2)cc1
[6]
  IC50: 6.18 µM (active)
[7]
  IC50: 13.9 µM (active)

## N=C1S/C(=C\c2ccc(O)cc2)C(=O)N1c1ccc(F)cc1
[8]
  IC50: 5.84 µM (active)
[9]
  IC50: 2.2 µM (active)
SUMO-activating enzyme [10]
  IC50: 23.9 µM (active)
[11]
  IC50: 14.1 µM (active)
[12]
  IC50: 32.9 µM (inactive)
SUMO-activating enzyme [13]
  IC50: 4.87 µM (active)
[14]
  IC50: 2.29 µM (active)

## CC(C)(C)OC(=O)N1CC(O)CC1C(=O)OCC(=O)c1ccc(-c2ccccc2)cc1 (configuration not stated)
[6]
  IC50: 1.79 µM (active)
[7]
  IC50: 2.89 µM (active)

## O=C1c2ccccc2C(Nc2cccnc2)N1Cc1ccccc1Cl (configuration not stated)
Troponin, cardiac muscle
  EC50: > 71.5 µM (inactive)

## CC(C)(C)C1(C)Oc2cccc(O)c2O1 (configuration not stated)
[15]
  IC50: > 100 µM (inactive)
[16]
  IC50: > 100 µM (inactive)

## CN1CCN(C(=O)c2cc(-c3ccc(Cl)cc3Cl)n[nH]2)CC1
[16]
  IC50: > 100 µM (inactive)
[17]
  IC50: > 100 µM (not active)
